Results taken from article PMC10368209, “Indolo[2,3-e]benzazocines and indolo[2,3-f]benzazonines and their copper(II) complexes as microtubule destabilizing agents” (Dalton Transactions (Cambridge, England : 2003), 2023).
Converted amounts (≈) assume the structure as drawn. Read-outs that look alike come from different tables or passages of the source.

Legend:
[1] = system: Colo205 human colon adenocarcinoma cell line; experiment: In vitro cytotoxicity MTT assay; format: cell-based; conditions: for IC50: Homo sapiens, COLO 205, 72 h incubation, MTT
Description: (§1) Four cell lines were used in this study: the doxorubicin-sensitive Colo205 (CCL-222, ATCC, Manassas, VA, USA) human colon adenocarcinoma cell line; the doxorubicin-resistant Colo320/MDR-LRP expressing P-glycoprotein (P-gp, ABCB1) (MDR1)-LRP (CCL-220.1, ATCC) human colon adenocarcinoma cell line; the hormone-responsive MCF-7 breast cancer cell line and the normal MRC-5 human embryonal lung fibroblast cell line (CCL-171, ATCC). The human cancer cell lines were purchased from LGC Promochem (Teddington, UK), and the MRC-5 cell line is a Sigma-Aldrich (Merck KGaA, Darmstadt, Germany) product. The Colo205 and Colo320 cell lines were cultured in RPMI 1640 medium supplemented with 10% fetal bovine serum (FBS), 2 mM L-glutamine, 1 mM Na-pyruvate and 10 mM HEPES. The MCF-7 and MRC-5 cells were cultured in Eagle's Minimal Essential Medium (EMEM) containing 4.5 g L^−1 of glucose and supplemented with a non-essential amino acid mixture, a selection of vitamins and 10% FBS. All cell lines were incubated at 37 °C, 5% CO2, 95% air atmosphere. The cells were detached with Trypsin-Versene (EDTA) solution for 5 min at 37 °C.
(§2) Prior to the cytotoxicity assays 10 mM stock solutions of the tested compounds were prepared in DMSO. These stock solutions were diluted with the culture medium (EMEM or RPMI 1640), and twofold serial dilutions of the compounds were prepared in 100 μL of the appropriate medium. […] The positive control was doxorubicin (Merck), and CuCl2 was also tested. All cancer cells were treated with Trypsin-Versene (EDTA) solution. A cell density of 1 × 10^4 cells was adjusted for the colon adenocarcinoma cells in 100 μL of RPMI 1640 medium and were added to each well, except for the medium control wells. The final volume was 200 μL in the wells containing compounds and cells. The MCF-7 and MRC-5 cells were seeded overnight prior to the assay. The following day, the serial dilution of the compounds were made in separate plates and added to the cells. The culture plates were incubated at 37 °C for 72 h; and at the end of the incubation period, 20 μL of 5 mg mL^−1 3-(4,5-dimethylthiazol-2-yl)-2,5-diphenyltetrazolium bromide (MTT) solution was added to each well and incubated for 4 h at 37 °C. The plates were further incubated at 37 °C overnight following the addition of 100 μL of sodium dodecyl sulfate (SDS) solution (10% in 0.01 M HCl). The optical density (OD) was measured at 450 nm (ref. 620 nm) with a Multiscan EX ELISA reader to follow the cell growth. Inhibition of cell growth (expressed as IC50: inhibitory concentration that reduces by 50% the growth of the cells exposed to the tested compounds) was determined from the sigmoid curve, where 100 − ((ODsample − ODmedium control)/(ODcell control − ODmedium control)) × 100 values were plotted against the logarithm of compound concentrations. The sigmoidal dose–response model (comparing variable and fixed slopes) of the GraphPad Prism software[88] was used to fit the curves. The IC50 values are averages from at least 3 independent experiments.

[2] = system: doxorubicin-resistant Colo320 human colon adenocarcinoma cell line; experiment: In vitro cytotoxicity MTT assay; format: cell-based; conditions: for IC50: Homo sapiens, COLO 320, 72 h incubation, MTT
Description: as §1, §2

[3] = system: normal human embryonal lung fibroblast cells (MRC-5); experiment: In vitro cytotoxicity MTT assay; format: cell-based; conditions: Homo sapiens, MRC5, 72 h incubation
Description: as §1, §2

[4] = system: MCF-7 breast cancer cells; experiment: In vitro cytotoxicity MTT assay; format: cell-based, human; conditions: for IC50: Homo sapiens, MCF7, 72 h incubation, MTT
Experimental: The human cancer cell lines were purchased from LGC Promochem (Teddington, UK), and the MRC-5 cell line is a Sigma-Aldrich (Merck KGaA, Darmstadt, Germany) product. […] The MCF-7 and MRC-5 cells were cultured in Eagle's Minimal Essential Medium (EMEM) containing 4.5 g L^−1 of glucose and supplemented with a non-essential amino acid mixture, a selection of vitamins and 10% FBS. […] The cells were detached with Trypsin-Versene (EDTA) solution for 5 min at 37 °C.
Prior to the cytotoxicity assays 10 mM stock solutions of the tested compounds were prepared in DMSO. […] The positive control was doxorubicin (Merck), and CuCl2 was also tested. All cancer cells were treated with Trypsin-Versene (EDTA) solution. […] The final volume was 200 μL in the wells containing compounds and cells. The MCF-7 and MRC-5 cells were seeded overnight prior to the assay. The following day, the serial dilution of the compounds were made in separate plates and added to the cells. The culture plates were incubated at 37 °C for 72 h; and at the end of the incubation period, 20 μL of 5 mg mL^−1 3-(4,5-dimethylthiazol-2-yl)-2,5-diphenyltetrazolium bromide (MTT) solution was added to each well and incubated for 4 h at 37 °C. The plates were further incubated at 37 °C overnight following the addition of 100 μL of sodium dodecyl sulfate (SDS) solution (10% in 0.01 M HCl). The optical density (OD) was measured at 450 nm (ref. 620 nm) with a Multiscan EX ELISA reader to follow the cell growth. […] The sigmoidal dose–response model (comparing variable and fixed slopes) of the GraphPad Prism software[88] was used to fit the curves. The IC50 values are averages from at least 3 independent experiments.

[5] = Thermodynamic solubility by UV-vis in saturated solutions; format: physicochemical; conditions: 20 mM HEPES buffer, 25 °C, aqueous buffer, thermodynamic from solid; pH 7.4 (20 mM HEPES), aqueous solution, T = 298 K, I = 0.10 M (KCl); read-out: Thermodynamic solubility S 7.4
Experimental: The thermodynamic solubility (S) of the studied compounds was determined in saturated solutions at pH 7.40 (20 mM HEPES buffer) in the absence of DMSO at 25.0 ± 0.1 °C. UV–vis spectrophotometry was applied to determine the concentration of the compounds using calibrating samples of the compounds of known concentrations dissolved in 100% DMSO and 50% (v/v) DMSO/buffered aqueous solutions.

[6] = Proton dissociation constants of ligands by UV-vis titrations; format: physicochemical; conditions: DMSO:water 30:70 (v/v) mixture, 30:70% (v/v) DMSO/H2O, T = 298 K, I = 0.10 M (KCl)
Experimental: The UV–vis spectra were recorded on an Agilent Cary 8454 diode array spectrophotometer between 200 and 800 nm. Spectrophotometric titrations were carried out on samples containing the ligand (HL^1, HL^2, HL^5 or HL^1(7)) or the ligand and Cu(II) ions together at different ligand-to-metal ratios (1 : 1, 1.5 : 1, 2 : 1) by a KOH solution in a DMSO : water 30 : 70 (v/v) mixture as solvent at 25.0 ± 0.1 °C in the pH range from 1.7 to 12.7 using 0.1 M KCl ionic strength. The concentration of ligands was 10 μM. The path length was 5 cm. For pH measurements and titrations, an Orion 710A pH-meter equipped with a Metrohm combined electrode (type 6.0234.100) and a Metrohm 665 Dosimat burette was used. Blank titrations (HCl vs. KOH) were performed similarly to the method proposed by Irving et al. for pure aqueous solutions to calibrate the electrode system to the pH = −log[H+] scale in the DMSO–water solvent mixture.[83] The water ionization constant (pKw) was determined to be 14.52 ± 0.05 on average, which is in line with the literature data.[84] During the titrations argon was passed over the solutions. The computer program PSEQUAD was used to calculate the proton dissociation constants (pKa) of the ligands, the overall stability constants (log β) of the Cu(II) complexes and the individual spectra of the various species present in solution.[85] […]

[7] = Stability constants and pKa of Cu(II) complexes by UV-vis titrations; format: physicochemical; conditions: 30:70% (v/v) DMSO/H2O
Experimental: The UV–vis spectra were recorded on an Agilent Cary 8454 diode array spectrophotometer between 200 and 800 nm. Spectrophotometric titrations were carried out on samples containing the ligand (HL^1, HL^2, HL^5 or HL^1(7)) or the ligand and Cu(II) ions together at different ligand-to-metal ratios (1 : 1, 1.5 : 1, 2 : 1) by a KOH solution in a DMSO : water 30 : 70 (v/v) mixture as solvent at 25.0 ± 0.1 °C in the pH range from 1.7 to 12.7 using 0.1 M KCl ionic strength. The concentration of ligands was 10 μM. The path length was 5 cm. For pH measurements and titrations, an Orion 710A pH-meter equipped with a Metrohm combined electrode (type 6.0234.100) and a Metrohm 665 Dosimat burette was used. Blank titrations (HCl vs. KOH) were performed similarly to the method proposed by Irving et al. for pure aqueous solutions to calibrate the electrode system to the pH = −log[H+] scale in the DMSO–water solvent mixture.[83] The water ionization constant (pKw) was determined to be 14.52 ± 0.05 on average, which is in line with the literature data.[84] During the titrations argon was passed over the solutions. The computer program PSEQUAD was used to calculate the proton dissociation constants (pKa) of the ligands, the overall stability constants (log β) of the Cu(II) complexes and the individual spectra of the various species present in solution.[85] In the general equilibrium pM + qL + rH ⇌ MpLqHr the stability constants is defined as β(MpLqHr) = [MpLqHr]/[M]^p[L]^q[H]^r, where M denotes the Cu(II) ion and L the completely deprotonated ligand. The calculations were always performed from experimental data where no precipitation was observed during titration.

ct-DNA = experiment: Ethidium displacement from ct-DNA by spectrofluorimetry; format: binding, calf; conditions: cDNA = 0.5 μM, cethidium = 0.25 μM, 298 K, 10 mM HEPES, pH 7.40
Experimental: Fluorescence measurements were carried out on a Fluoromax (Horiba Jobin Yvon) fluorimeter. Stock solutions of the complexes and ligands were prepared in pure DMSO (c = 1 or 0.5 mM). Stock solution of ct-DNA was prepared as described recently.[86] The sample volume was […] and contained 0.5 μM ct-DNA expressed in base pairs, 0.25 μM ethidium and different concentrations of complexes 1, 2, 4, 5, 6, 4(6), 4(7) or ligands (HL^1, HL^2, HL^5, HL^6) in 10 mM HEPES buffer (pH 7.40). DMSO content of the samples varied between 0 and 1% (v/v). The excitation wavelength was 510 nm, and the fluorescence emission was measured in the range of 530–750 nm. Corrections for self-absorbance and inner filter effect were performed as described previously.[87]

[8] = system: tubulin (colchicine site); experiment: Inhibition of [3H]colchicine binding to tubulin; conditions: 0.5 μM tubulin, 5 μM [3H]colchicine
Experimental: The methods used to determine the IC50 values for tubulin assembly and inhibition of [^3H]colchicine binding were recently described in detail.[96] In brief, for the assembly assay, 0.25 mL reaction mixtures contained 1.0 mg mL^−1 (10 μM) tubulin, 0.8 M monosodium glutamate (pH 6.6 with HCl in 2.0 M stock solution), 4% (v/v) DMSO (compound solvent), varying compound concentrations, and 100 μM GTP. All components except GTP were preincubated at 30 °C for 15 min in a 0.24 mL volume. Reaction mixtures were then placed on ice, and the GTP was added in a 10 μL volume. Assembly was monitored in Beckman DU7400/7500 spectrophotometers equipped with electronic temperature controllers and driven by a custom program. The samples were transferred to cuvettes held at 0 °C, and the temperature was jumped to 30 °C over about 30 s. Change in turbidity was measured for 20 min at 350 nm, and the IC50 was defined as the compound concentration that reduced the extent of reaction by 50%. For the colchicine binding assay, reaction mixtures contained 0.05 mg mL^−1 (0.5 μM) tubulin, 5.0 μM [^3H]colchicine, 5% (v/v) DMSO (compound solvent), compound as indicated, and components found to stabilize the colchicine binding activity of tubulin. Incubation was for 10 min at 37 °C, at which time the amount of colchicine bound to the tubulin is 40–60% of maximum. Each reaction mixture was diluted with 2.0 mL of ice cold water and poured onto a single Whatman DEAE-cellulose filter (tubulin binds tightly to the filter, and unbound colchicine passes through). Gravity filtration was used for the samples, and the filters were then washed with three 2.0 mL aliquots of ice cold water (vacuum aspiration). The filters were counted in a Beckman scintillation counter, with correction for the amount of radiolabel bound to filters in the absence of tubulin.

[9] = Cu(II) complex of the ligand, T = 298 K, I = 0.10 M (KCl)
[10] = selectivity factor normal vs cancer cells

Compound	IC50 [1] [nM]	IC50 [2] [nM]	IC50 [3] [nM]	IC50 [4] [nM]	solubility thermodynamic [5] [µM]	pKa ([6]; read-out: pKa1 H2(HL)^2+)	pKa ([6]; read-out: pKa2 H(HL)^+)	log β [Cu(HL)]^2+ [7, 9]	log β [Cu(L)]^+ [7, 9]	log K′ [Cu(L)]^+ ([7]; K′: H2(HL)^2+ + Cu^2+ ⇌ [Cu(L)]^+ + 3H^+, 298 K)	SF (Colo205) = IC50 MRC-5/IC50 Colo205 [1, 10]	SF (Colo320) = IC50 MRC-5/IC50 Colo320 [2, 10]	SF (MCF-7) = IC50 MRC-5/IC50 MCF-7 [4, 10]	Displacement of intercalated ethidium from ct-DNA (in words) (ct-DNA)	Inhibition of colchicine binding % inhibition ± SD ([8]; 5 μM inhibitor) [%]	Inhibition of colchicine binding % inhibition ± SD ([8]; 25 μM inhibitor) [%]
COc1cccc2c1C(=O)c1c(O)c3c(c(O)c1C2=O)C[C@@](O)(C(=O)CO)C[C@@H]3O[C@H]1C[C@H](N)[C@H](O)[C@H](C)O1 [Doxorubicin, doxorubicin, reference compound]	820 ± 20	3300 ± 100	1160 ± 110	210 ± 30	–	–	–	–	–	–	–	–	–	–	–	–
C(=N\N=C1/NCCc2ccccc2-c2c1[nH]c1ccccc21)/c1ccccn1 [HL^1]	30000 ± 2000	5600 ± 100	40000 ± 1000	1300 ± 100	8 (≈ 2.92 µg/mL)	2.07 ± 0.01	5.04 ± 0.02	8.55 ± 0.02	4.14 ± 0.02	−2.97	1.37	7.26	31.03	could not displace the intercalated ethidium cation	18 ± 5	46 ± 5
